pEC50, pIC50: −log10 of the molar value.

Our source for the IC50 and EC50 values is patent publication US12534450B2, “Methods and compositions for targeting PD-L1” (Aligos Therapeutics, Inc., priority 2021, dated 2026).

The target of one test is PD-1/PD-L1 PPI (Homo sapiens, UniProt Q9NZQ7). As to the kind of experiment: PDL1/PD1 Binding Assay. As to conditions: PDL1-6×His 0.3 nM, PD1-Fc-Avi-Biotin 2.5 nM, Acceptor/Donor beads, Envision reader. In short, it runs like this:
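AlphaScreen competition: compound (1% DMSO) preincubated 30 min RT with PDL1-6×His (0.3 nM), then PD1-Fc-Avi-Biotin (2.5 nM) 30 min; anti-His acceptor and streptavidin donor beads (20 ug/mL each) added, 1 h each, dark up to overnight. Buffer 25 mM Hepes pH 7.4, 150 mM NaCl. IC50 by four-parameter fit.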

In another test the test system is PD-1/PD-L1 interaction. As to the kind of experiment: PD-1/PD-L1 NFAT Reporter Assay (co-culture of Jurkat T cells overexpressing PD-1 and PD-L1 expressing CHO cells). As to conditions: Homo sapiens, Jurkat, 6 h, co-culture 6 hrs at 37° C., NFAT-mediated luciferase activity. The test is classed as cell-based. Summed up:
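Compounds added to CHO cells expressing surface anti-CD3 and PD-L1, then Jurkat cells with PD-1 and NFAT-driven luciferase seeded on top; co-culture 6 hrs at 37° C. Luminescence read after ONE-Glo addition, EC50 from dose-response fit.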
For orientation: Reporter assays use an easily measured gene product as a stand-in for the process of interest.

Chain of PD-1/PD-L1 PPI (Q9NZQ7 19-238 limits assumed): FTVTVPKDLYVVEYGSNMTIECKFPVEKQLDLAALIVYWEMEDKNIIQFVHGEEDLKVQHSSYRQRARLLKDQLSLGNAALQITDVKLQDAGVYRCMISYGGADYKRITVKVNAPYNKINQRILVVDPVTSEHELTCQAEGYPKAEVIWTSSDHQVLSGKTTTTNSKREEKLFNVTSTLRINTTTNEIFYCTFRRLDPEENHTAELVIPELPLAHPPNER

The term pIC50 denotes the IC50 on a negative log10 scale, so that one unit is a factor of ten. What is called pEC50 is −log10 of the EC50, conventionally taken in molar units. A low value points to a high EC50. In the case of `COc1nc(-c2cccc(-c3cccc(NC(=O)c4cn(C)c(=O)n(C)c4=O)c3C)c2C)cc2c1C(N1CC(C)(OC)C1)CC2` [Compound D-18], the pIC50 on PD-1/PD-L1 PPI was at least 8.00. This molecule showed a pEC50 in the test on PD-1/PD-L1 interaction of 7.00 to 8.00.
For `COc1nc(-c2cccc(-c3cccc(NC(=O)c4cn(C)c(=O)n(C)c4=O)c3C)c2C)cc2c1C(N1C[C@@H](O)[C@@H]1C)CC2` (stereo partly drawn) [Compound D-19] the same measures were at least 8.00 and 6.00 to 7.00.
As for `CCCCOC(=O)N(C[C@@H]1CCC(=O)N1)[C@H]1CCc2cc(-c3cccc(-c4cccc(NC(=O)c5cn(C)c(=O)n(C)c5=O)c4C)c3Cl)nc(OC)c21` [Compound E-2], the pIC50 on PD-1/PD-L1 PPI is at least 8.00. In the test with PD-1/PD-L1 interaction, this molecule showed a negative-log EC50 (pEC50) of under 5.00.
In the same order, the values of `COc1nc(-c2cccc(-c3cccc(NC(=O)c4cn(C)c(=O)n(C)c4=O)c3Cl)c2Cl)cc2c1C(N1CC3(CCNC3)C1)CC2` (stereo not shown) [Compound G-1] are at least 8.00 and 7.00 to 8.00.
For `COc1nc(-c2cccc(-c3cccc(NC(=O)c4cn(C)c(=O)n(C)c4=O)c3Cl)c2Cl)cc2c1C(N1CC3(CCN(C(C)=O)C3)C1)CC2` (stereo not shown) [Compound H-1] the same measures were at least 8.00 and at least 8.00.
